Assay [1] has as its system COVID-19. As to the kind of experiment: Kaplan-Meier survival of COVID-19 positive patients hospitalized at the Mayo Clinic, by drug cohort. Type of assay: in vivo, human.
Assay [2] concerns COVID-19. Description: IL-6 level / ICU duration quadrants of COVID-19 ICU patients after therapeutic administration. The format is in vivo, human. The settings on record: for patient count in quadrant Q2 / proportion of patients in quadrant Q2: Q2: ICU ≥15 days or deceased and IL-6 <10 pg/mL; for patients in Q3: Q3: ICU <15 d and IL-6 ≥10 pg/mL; for Proportion of Group − Proportion of Other: cohort vs patients not taking the drug class. The method, then: Four categories of patient IL-6 level/ICU stay length were defined (i.e. the 4 quadrants described in Table 2). For each drug class with at least 10 patients, and for each quadrant with nonzero number of patients, the proportion of patients in the quadrant out of those taking a drug from the class were compared to the proportion of patients in the quadrant out of those not taking a drug from the class. Fisher exact test was performed to compute p-values on these proportion comparisons. A Benjamini-Hochberg adjustment was also applied to these p-values for multiple hypotheses.
Because only 10 patients met the aforementioned criteria, 10 additional COVID positive, ICU patients who only had IL-6 measured post-corticosteroid administration were also examined. Their IL-6 levels were plotted against the duration of ICU stay (see FIG. 3). Similarly, patients who received tocilizumab (n=5), azithromycin (n=49), hydroxychloroquine (n=10), and antivirals (lopinavir-ritonavir and ribavirin, n=4) were also examined. Patients were grouped into the following four categories based on IL-6 level, ICU status, and mortality: • (Q1) ICU<15 d and IL-6<10 pg/mL, • (Q2) ICU≥15 d or deceased and IL-6<10 pg/mL, • (Q3) ICU<15 d and IL-6≥10 pg/mL, and • (Q4) ICU≥15 d or deceased and IL-6≥10 pg/mL. […] As a corollary, corticosteroids have fewer patients (30%, n=20) in Q3 compared to tocilizumab (80%, n=5), azithromycin (61%, n=49), and hydroxychloroquine (60%, n=10). (See Table 2)

Where [3] appears, read: COVID-19 patients requiring ICU admission.
Where [4] appears, read: all hospitalized COVID-19 patients.
The mark [5] stands for this setting: Q1: ICU <15 days and IL-6 <10 pg/mL.
Setting [6] is: Q3: ICU <15 days and IL-6 ≥10 pg/mL.
[7] abbreviates: Q4: ICU ≥15 days or deceased and IL-6 ≥10 pg/mL.

On to `CC[C@H]1OC(=O)[C@H](C)[C@@H](O[C@H]2C[C@@](C)(OC)[C@@H](O)[C@H](C)O2)[C@H](C)[C@@H](O[C@@H]2O[C@H](C)C[C@H](N(C)C)[C@H]2O)[C@](C)(O)C[C@@H](C)CN(C)[C@H](C)[C@@H](O)[C@]1(C)O` [azithromycin], for which the entries for the “survival rate at 60 days post-diagnosis” value in the assay on COVID-19 [1] (setting [3]) and with COVID-19 [1] (setting [4]) were 92% and 93%, respectively. In addition, the “patient count in quadrant Q1” value in the assay on COVID-19 [2] (setting [5]) is reported as 4. In the assay with COVID-19 [2], the “patient count in quadrant Q2” value was 0. Besides, the “proportion of patients in quadrant Q2” value in the assay with COVID-19 [2] is “(0)”. In the assay with COVID-19 [2], the “patients in Q3” value is reported as 61%. The “patient count in quadrant Q3” value in the assay with COVID-19 [2] (setting [6]) is 30. In the assay on COVID-19 [2] (setting [7]), the “patient count in quadrant Q4” value worked out at 15. Also, the figures for the “Proportion of Group − Proportion of Other” value (shortened to “Proportion … of Other”) in the assay with COVID-19 [2] (quadrant Q1), with COVID-19 [2] (quadrant Q3) and in the assay on COVID-19 [2] (quadrant Q4) were −0.10, 0.17 and −0.07, respectively.

Consider `C[C@@H]1C[C@H]2[C@@H]3CCC4=CC(=O)C=C[C@]4(C)[C@@]3(F)[C@@H](O)C[C@]2(C)[C@@]1(O)C(=O)CO` [dexamethasone], for which the figures for the “survival rate at 60 days post-diagnosis” value in the assay with COVID-19 [1] (setting [3]) and in the assay with COVID-19 [1] (setting [4]) were 72% and 90%, respectively.

For the compound `C[C@]12CCC(=O)C=C1CC[C@@H]1[C@@H]2[C@@H](O)C[C@@]2(C)[C@H]1CC[C@]2(O)C(=O)CO` [hydrocortisone], the “survival rate at 60 days post-diagnosis” value with COVID-19 [1] (setting [4]) came out at 79%.

As to `CCN(CCO)CCCC(C)Nc1ccnc2cc(Cl)ccc12` (stereo not drawn) [hydroxychloroquine], the “survival rate at 60 days post-diagnosis” value in the assay with COVID-19 [1] (setting [3]) came out at 100%. In addition, in the assay on COVID-19 [2] (setting [5]), the “patient count in quadrant Q1” value is 2. Moreover, in the assay with COVID-19 [2], the “patient count in quadrant Q2” value was found to be 0, the “proportion of patients in quadrant Q2” value is on record as “(0)” and the “patients in Q3” value was 60%. In addition, in the assay with COVID-19 [2] (setting [6]), the “patient count in quadrant Q3” value is 6. Besides, the “patient count in quadrant Q4” value with COVID-19 [2] (setting [7]) came out at 2. In addition, the “Proportion … of Other” value in the assay with COVID-19 [2] (quadrant Q1) was 0.08. Moreover, in the assay with COVID-19 [2] (quadrant Q3), the “Proportion … of Other” value is 0.05. Besides, the “Proportion … of Other” value in the assay on COVID-19 [2] (quadrant Q4) is given as −0.13.

On to `C[C@H]1C[C@@H]2[C@H]([C@@H](O)C[C@@]3(C)[C@H]2CC[C@]3(O)C(=O)CO)[C@@]2(C)C=CC(=O)C=C12` [methylprednisolone], for which the “survival rate at 60 days post-diagnosis” value in the assay with COVID-19 [1] (human, in vivo) was 77%.

`C[C@]12C=CC(=O)C=C1CC[C@@H]1[C@@H]2C(=O)C[C@@]2(C)[C@H]1CC[C@]2(O)C(=O)CO` [prednisone]: in the assay on COVID-19 [1] (setting [4]), the “survival rate at 60 days post-diagnosis” value is given as 92%.

With tocilizumab, the “survival 60 days post diagnosis (in words)” value in the assay with COVID-19 [1] (hospitalized COVID-19 patients) is on record as “all 11 hospitalized patients receiving tocilizumab survived”. In addition, in the assay with COVID-19 [2] (setting [5]), the “patient count in quadrant Q1” value worked out at 0 and the “proportion of patients in quadrant Q1” value was “(0)”. For the same compound, in the assay on COVID-19 [2], the “patient count in quadrant Q2” value amounted to 0, the “proportion of patients in quadrant Q2” value is on record as “(0)” and the “patients in Q3” value came to 80%. Also, in the assay with COVID-19 [2] (setting [6]), the “patient count in quadrant Q3” value turned out to be 4 and the “proportion of patients in quadrant Q3” value is on record as “(0.8)”. Also, in the assay with COVID-19 [2] (setting [7]), the “patient count in quadrant Q4” value was 1 and the “proportion of patients in quadrant Q4” value is on record as “(0.2)”.

(Values after patent US20230075138A1 (priority 2021, published 2023).)
